According to publication PMC7051184, “C9orf72 arginine-rich dipeptide repeat proteins disrupt karyopherin-mediated nuclear import” (eLife, 2020):
Where a SMILES comes first, the peptide text is derived from it.

Legend:
importin β = assay: Biochemical pulldown (GFP-Trap) for DPR-induced Rango-importin β dissociation; type: binding, human; details: increasing concentrations of DPRs
Experimental: GFP-Trap magnetic beads (Chromotek, Planegg-Martinsried, Germany) were washed and resuspended in TTBS. At the end of incubation, 8 µl bead suspension was added to each sample and mixed by rotation for 15 min. The supernatant was removed and beads washed 3 times with TTBS before boiling in 20 µl SDS-PAGE sample buffer with 2% β-mercaptoethanol. Samples were separated by SDS-PAGE and anti-GFP western blot performed as detailed below to detect Rango. After detecting the ECL signal, membranes were stained with Coomassie Brilliant R250 to detect importin β. Background-subtracted signals were determined by Image Lab 6.01 (BioRad) and the Rango ECL signal normalized to the importin β signal within each lane.
Supernatant and pellet fractions (for all 5 DPRs, and control/buffer only) were prepared as in the nuclear transport assays, by adding 100 µM 10mers to 2.5 mg/ml HEK lysate in 100 µL TRB. Supernatants were boiled in Laemmli (BioRad) for 5 min. Pellets were boiled for 15 min followed by sonication in order to fully disperse aggregates for SDS-PAGE. Equal volumes of supernatant and pellet fractions were run on 4–12% Bolt Bis-Tris Plus gels (ThermoFisher), transferred to nitrocellulose membrane using an iBlot2 dry blotting system (ThermoFisher). Protein loading was analyzed by BLOT-Faststain (G-biosciences, St. Louis, MO), according to the manufacterers’ instructions. For immunodetection, membranes were blocked with 5% non-fat milk in TBST and probed by sequential incubation with the primary antibodies as detailed in the table below. Detection was by HRP-conjugated secondary antibodies/chemiluminescence using an ImageQuant LAS 4000 system (GE, Chicago, IL). To permit sequential probing of membranes without stripping, signals were quenched by incubation with prewarmed 30% H20_2 for 20 min ([Sennepin et al., 2009]). Band intensities were measured by ImageQuant software. For pellet vs. supernatant fractions, all were expressed as percent untreated control. For blots in Figure 1E, samples were run on 4–20% SDS PAGE minigels (ThermoFisher) and blotted to PVDF membranes (Immun-Blot PVDF, Bio-Rad) using the Bio-Rad TransBlot Turbo apparatus, and probed as above. The chemiluminescence signal was captured with a Bio-Rad ChemiDoc XRS+ digital imaging system.

[1] = target: importin β-mediated nuclear import of Rango (Homo sapiens, UniProt Q14974); assay: Permeabilized cell nuclear import assay, Rango, mouse primary cortical neurons; type: cell-based; details: for Effect on Rango import, time-lapse imaging: 30 min, up to 100 µM; for Effect on Rango import at steady state: 100 µM, fixed at 2 hr
Excerpt: All animal procedures were approved by the Johns Hopkins Animal Care and Use Committee. Timed pregnant C57BL/6J females (Jackson Laboratory, Bar Harbor, ME) were sacrificed by cervical dislocation at E16, cortex dissociated, and cells plated at 50,000/well on poly-D-lysine/laminin-coated, optical glass-bottom 96-well plates. Growth medium consisted of Neurobasal supplemented with B27, Glutamax, and penicillin/streptomycin (Gibco/ThermoFisher). At 5–7 days in vitro, neurons were rinsed in prewarmed PBS and permeabilized for 4 min. at 37° in a hypotonic solution containing […] Tris-HCl pH 7.5 (to cause osmotic swelling) and 50–150 mg/ml BSA (for molecular crowding/mechanical support). Following permeabilization, cells were placed on ice and rinsed 2 × 5 min in transport buffer (TRB, 20 mM HEPES, 110 mM KOAc, 2 mM Mg(OAc)2, 5 mM NaOAc, 0.5 mM EGTA, 250 mM sucrose, pH 7.3, with protease inhibitor cocktail). All rinse and assay buffers were supplemented with 50 mg/mL BSA. The optimal hypotonic buffer and BSA concentration varied by batch, and was optimized prior to each set of assays for ability to permeabilize the majority of plasma membranes while maintaining nuclear exclusion of a 70 kD fluorescent dextran (ThermoFisher).
Concentrated whole cell lysates were prepared from HEK293T cells (ATCC, mycoplasma negative and validated by STR profiling), grown in 150 mm dishes and sonicated on ice in 1X TRB in the presence of protease inhibitor cocktail (Roche). The lysates were clarified (15 min, 14000 g, 4C), snap frozen in liquid nitrogen, and stored in single use aliquots at −80C. Total HEK cell RNA was extracted using miRNEasy kits according to the manufacturers’ protocol, with DNase digestion (Qiagen). RNA concentration was measured by Nanodrop (ThermoFisher), and all 260/280 ratios were verified to be > 2.0. Energy regeneration (ER) mix consisted of 100 µM ATP, 100 µM GTP, 4 mM creatine phosphate, and 20 U/mL creatine kinase (Roche).
Reaction mixes consisting of 2.5 mg/ml lysate, ER, fluorescent cargo (200 nM Rango and YFP-M9-CFP, 500 nM GST-GFP-NLS), Hoechst, DPRs, RNA, or inhibitors (100 µM importazole (IPZ, Millipore Sigma); 0.8 mg/mL wheat germ agglutinin (WGA, Millipore Sigma) were assembled on ice during cell permeabilization. DPRs or inhibitors were allowed to equilibrate in cell lysate for at least 30 min prior to initiation of transport. Every plate included: (1) Cargo alone: fluorescent cargo, but no ER or lysate, (2) Untreated controls: fluorescent cargo, ER, and lysate, and (3) Inhibitor: fluorescent cargo, ER, lysate, and IPZ (Rango and GST-GFP-NLS reactions) or WGA (YFP-M9-CFP). Preassembled transport reactions were then transferred onto permeabilized cells via multichannel pipette, and allowed to proceed at room temperature for 2 hr (Rango, YFP-M9-CFP) or 4 hr (GST-GFP-NLS). Cells were fixed in 4% paraformaldehyde/PBS, rinsed 2x with PBS, and transferred to 50% glycerol/PBS for immediate imaging.
For a subset of neuron transport assays, transport was monitored live via time lapse imaging every 5 min for 30 min. In a subset of HeLa assays, transport reactions were centrifuged before use at 14,000g × 15 min to separate soluble and insoluble fractions. In another variation, the transport lysate + DPR and ER mix was allowed to preincubate on the permeabilized HeLa cells for 1 hour prior to initiation of transport, rinsed 1x with TRB, and transport initiated with fresh lysate, cargo, and ER.
Multiple non-overlapping fields per well (4 for time-lapse imaging, 9-16 for fixed imaging), were captured at 40x on an ImageXpress Micro XLS high-content microscope (Molecular Devices, San Jose, CA), and the ratio of nuclear to cytoplasmic fluorescence intensity was calculated using the MetaXpress automated translocation-enhanced module. Raw data were filtered to exclude autofluorescence and the mean N/C ratio from wells without ER or cell lysate was subtracted from all values.

[2] = system: passive nuclear influx of GFP; assay: Passive import assay, GFP, permeabilized HeLa; type: cell-based, human; details: preincubation 30–60 min, with energy and lysate; imaged 5 min

Chain of importin β-mediated nuclear import of Rango (Q14974 whole entry): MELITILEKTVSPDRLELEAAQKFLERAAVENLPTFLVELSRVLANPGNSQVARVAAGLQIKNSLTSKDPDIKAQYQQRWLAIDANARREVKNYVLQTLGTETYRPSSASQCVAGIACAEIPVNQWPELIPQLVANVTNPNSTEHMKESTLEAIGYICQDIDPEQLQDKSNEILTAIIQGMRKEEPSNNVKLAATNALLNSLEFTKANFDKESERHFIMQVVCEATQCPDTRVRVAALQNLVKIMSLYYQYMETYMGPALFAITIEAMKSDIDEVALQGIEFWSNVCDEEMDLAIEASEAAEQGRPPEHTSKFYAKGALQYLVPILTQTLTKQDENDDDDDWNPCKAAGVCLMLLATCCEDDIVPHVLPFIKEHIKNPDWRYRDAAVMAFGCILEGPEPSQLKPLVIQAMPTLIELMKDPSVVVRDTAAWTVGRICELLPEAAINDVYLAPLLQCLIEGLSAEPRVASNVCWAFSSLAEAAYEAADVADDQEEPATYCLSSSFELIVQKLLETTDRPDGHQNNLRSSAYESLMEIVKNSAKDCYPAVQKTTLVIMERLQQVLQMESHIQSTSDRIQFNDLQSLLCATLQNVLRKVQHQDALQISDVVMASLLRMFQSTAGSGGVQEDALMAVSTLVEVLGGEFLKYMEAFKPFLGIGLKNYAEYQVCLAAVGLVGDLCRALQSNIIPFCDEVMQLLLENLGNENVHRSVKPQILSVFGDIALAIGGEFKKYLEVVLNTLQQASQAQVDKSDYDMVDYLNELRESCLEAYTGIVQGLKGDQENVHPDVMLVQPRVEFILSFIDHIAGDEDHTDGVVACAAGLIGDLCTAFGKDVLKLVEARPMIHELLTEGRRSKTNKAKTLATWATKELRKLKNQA

N=C(N)NCCC[C@H](NC(=O)[C@@H]1CCCN1C(=O)[C@H](CCCNC(=N)N)NC(=O)[C@@H]1CCCN1C(=O)[C@H](CCCNC(=N)N)NC(=O)[C@@H]1CCCN1C(=O)[C@H](CCCNC(=N)N)NC(=O)[C@@H]1CCCN1C(=O)[C@H](CCCNC(=N)N)NC(=O)[C@@H]1CCCN1C(=O)[C@H](CCCNC(=N)N)NC(=O)[C@@H]1CCCN1C(=O)[C@H](CCCNC(=N)N)NC(=O)[C@@H]1CCCN1C(=O)[C@H](CCCNC(=N)N)NC(=O)[C@@H]1CCCN1C(=O)[C@H](CCCNC(=N)N)NC(=O)[C@@H]1CCCN1C(=O)[C@H](CCCNC(=N)N)NC(=O)[C@@H]1CCCN1)C(=O)O [PR10] (H-PRPRPRPRPRPRPRPRPRPR-OH; N-terminus and C-terminus assumed)
Displacement of importin β from Rango (GFP nanobody bead co-immunoprecipitation) (importin β): dose-dependent displacement of importin β from the sensor
Effect on Rango import, time-lapse imaging [1]: dose-dependent inhibition of transport

GA10: Synthetic 10-mer GA dipeptide repeat with C-terminal lysine and cysteine (GAGAGAGAGAGAGAGAGAGAKC)
Displacement of importin β from Rango (GFP nanobody bead co-immunoprecipitation) (importin β): little if any effect
Effect on Rango import at steady state [1]: only trace inhibition
Effect on Rango import, time-lapse imaging [1]: no effect
NCT inhibition in permeabilized neurons ([1]; high concentrations): only minimal inhibition at high concentrations
Effect on passive nuclear influx of GFP [2]: not observed

GPGPGPGPGPGPGPGPGPGPKC [GP10, Synthetic 10-mer GP dipeptide repeat with C-terminal lysine and cysteine]
Displacement of importin β from Rango (GFP nanobody bead co-immunoprecipitation) (importin β): little if any effect
Effect on Rango import at steady state [1]: no effect
Effect on Rango import, time-lapse imaging [1]: no effect
Effect on passive nuclear influx of GFP [2]: not observed

PA10: Synthetic 10-mer PA dipeptide repeat with C-terminal lysine and cysteine (PAPAPAPAPAPAPAPAPAPAKC)
Displacement of importin β from Rango (GFP nanobody bead co-immunoprecipitation) (importin β): little if any effect
Effect on Rango import at steady state [1]: only trace inhibition
Effect on Rango import, time-lapse imaging [1]: no effect
Effect on passive nuclear influx of GFP [2]: not observed
